From publication PMC5021521, “Coordinated recruitment of Spir actin nucleators and myosin V motors to Rab11 vesicle membranes” (eLife, 2016)
Peptide text beside a SMILES is read from it. * marks the point of attachment. 5FAM = O=C1OC2(c3ccc(O)cc3Oc3cc(O)ccc32)c2ccc(C(=O)*)cc21; Ahx = NCCCCCC(=O)O

Key:
[1] = test system: Myc-Spir-2; assay: Colocalization with Spir-2 on vesicular structures in HeLa cells; assay type: cell-based, Homo sapiens; details: full-length proteins co-expressed
Procedure: HeLa cells were seeded on microscope cover glasses and transfected with Myc-epitope-tagged Spir-2 proteins and fluorescently-tagged MyoV and Rab11 proteins as described above. Cells were fixed with paraformaldehyde (3.7% in 1x PBS) for 20 min at 4°C and subsequently permeabilized using 0.2% Triton X-100 (in 1x PBS) for 3.5 min, room temperature. […] Finally, cells were mounted on microscope slides with Mowiol and analyzed with a Leica AF6000LX fluorescence microscope, equipped with a Leica HCX PL APO 63x/1.3 GLYC objective and a Leica DFC350 FX digital camera (1392 × 1040 pixels, 6.45 × 6.45 µm pixel size). 3D stacks were recorded and processed with the Leica deconvolution software module. In case of the MyoVa autoregulation/activation experiments, we quantified the MyoVa expression levels. […] In order to clearly distinguish between vesicular and cytoplasmic MyoVa localization, we imaged either high or low expressing cells and determined the sum of pixel gray values per cell as a measure for the MyoVa expression levels. […] Images were recorded using the Leica LASX software and further processed with Adobe Photoshop and subsequently assembled with Adobe Illustrator.

[2] = test system: GST-Rab11a-Q70L; assay: GST-pulldown from HEK293 lysates; assay type: binding; details: HEK293 lysates over-expressing Myc-Spir-2, Straw-FMN2-FH2-FSI and GFP-MyoVa-FL; N = 2
Procedure: HEK293 cells were co-transfected with expression vectors encoding Myc-Spir-2-FL, mStrawberry-FMN2-FH2-FSI, eGFP-MyoVa-D-FL and eGFP-MyoVa-D-Q1753R, respectively. 24 hr post transfection, cells were lysed in lysis buffer (25 mM Tris-HCl pH 7.4, 150 mM NaCl, 5 mM MgCl2, 10% (v/v) glycerol, 0.1% (v/v) Nonidet P-40, 1 mM PMSF, protease inhibitor cocktail) and centrifuged at 20,000 x g, 4°C, 20 min to remove insoluble debris. For GST-pulldown assays 65 µg GST-Rab11a-Q70L protein (25 µg GST control) was coupled to GSH-Sepharose 4B beads (1:1 suspension) for 1 hr, 4°C on a rotating wheel. Beads were washed twice with pulldown buffer (25 mM Tris-HCl pH 7.4, 150 mM NaCl, 5 mM MgCl2, 10% (v/v) glycerol, 0.1% (v/v) Nonidet P-40) and subsequently incubated with the cell lysates for 2 hr at 4°C on a rotating wheel. Beads were washed four times with pulldown buffer and bound proteins were eluted with 1x Laemmli buffer and denatured at 95°C for 10 min, then were analyzed by immunoblotting.

[3] = test system: HeLa cells; assay: Subcellular localization by fluorescence microscopy; assay type: cell-based; details: single expression
Procedure: HeLa cells were seeded on microscope cover glasses and transfected with Myc-epitope-tagged Spir-2 proteins and fluorescently-tagged MyoV and Rab11 proteins as described above. Cells were fixed with paraformaldehyde (3.7% in 1x PBS) for 20 min at 4°C and subsequently permeabilized using 0.2% Triton X-100 (in 1x PBS) for 3.5 min, room temperature. Cells were incubated with anti-c-Myc antibody (9E10, mouse monoclonal, 2 µg/ml, Santa Cruz Biotechnology; RRID: AB_627268) for 1 hr at room temperature and conjugated anti-mouse secondary antibodies (Cy5; from donkey, 3.25 µg/ml, Dianova (RRID: AB_2340820) and TRITC; from donkey, 3.125 µg/ml, Dianova (RRID: AB_2340767)) for 1 hr at room temperature avoiding exposure to light. Finally, cells were mounted on microscope slides with Mowiol and analyzed with a Leica AF6000LX fluorescence microscope, equipped with a Leica HCX PL APO 63x/1.3 GLYC objective and a Leica DFC350 FX digital camera (1392 × 1040 pixels, 6.45 × 6.45 µm pixel size). 3D stacks were recorded and processed with the Leica deconvolution software module. In case of the MyoVa autoregulation/activation experiments, we quantified the MyoVa expression levels. […] In order to clearly distinguish between vesicular and cytoplasmic MyoVa localization, we imaged either high or low expressing cells and determined the sum of pixel gray values per cell as a measure for the MyoVa expression levels. Based on that, we only used cells for the autoregulation analysis having a sum of pixel gray values less than 20 × 10^6 for the expression of GFP-MyoVa-D-FL. Images were recorded using the Leica LASX software and further processed with Adobe Photoshop and subsequently assembled with Adobe Illustrator.

[4] = biological target: T1, MyoVb-GTD (Homo sapiens, UniProt Q9ULV0); assay: Fluorescence anisotropy, fluorescein-labeled Spir-2 peptide; assay type: binding
T1 construct: aa 1456 - 1848 (BamHI / XhoI); His6 (6xHis) with rTEV site (N, cleaved yes); made in house; host or cells: Escherichia coli BL21(DE3) or BL21-CodonPlus-RILP
T1 sequence (Q9ULV0 1456-1848): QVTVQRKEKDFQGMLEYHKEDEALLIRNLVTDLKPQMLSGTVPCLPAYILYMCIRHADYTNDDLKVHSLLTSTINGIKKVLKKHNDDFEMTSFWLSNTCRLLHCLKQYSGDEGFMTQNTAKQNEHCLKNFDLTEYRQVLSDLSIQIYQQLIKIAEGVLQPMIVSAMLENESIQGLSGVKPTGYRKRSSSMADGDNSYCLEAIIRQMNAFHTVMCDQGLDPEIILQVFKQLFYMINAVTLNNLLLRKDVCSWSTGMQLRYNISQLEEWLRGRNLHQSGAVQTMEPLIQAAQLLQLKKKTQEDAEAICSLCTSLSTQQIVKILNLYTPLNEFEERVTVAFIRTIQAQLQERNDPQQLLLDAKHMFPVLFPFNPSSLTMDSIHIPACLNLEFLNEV
Procedure: (§1) Fluorescence anisotropy measurements were performed on a PTI Quanta-Master QM4CW spectrofluorometer (PTI, Lawrenceville, NJ, USA) at 25°C using a 10 mm wide quartz cell. Bandwidths of excitation and emission monochromators were set respectively at 5 and 15 nm. Fluorescence anisotropy, expressed in millianisotropy units, was calculated according to the equation A=IVV−GIVH/IVV+2GIVH
(§2) with A is anisotropy, G = IHV/IHH is a correction factor for wavelength-dependent distortion, and I is the fluorescence intensity component. Anisotropy values were averaged from 30 different acquisitions. The cell was charged with 1 µM of fluorescein labeled Spir-2-401-427 peptide in a final volume of 1 ml in buffer (100 mM Tris-HCl pH 8.0, 150 mM NaCl, 2 mM MgCl2, 2 mM TCEP, 5% (v/v) glycerol) and titrated with MyoVa-GTD or MyoVb-GTD (50 nM–5 µM). The binding isotherms were fitted to obtain the equilibrium dissociation constants Kd and standard errors, by using the Origin 2015 software that implements Levenberg Marquardt iterative minimization algorithms, using the equation y=F0+Fm−F0/2P(P+x+Kd−(P+x+Kd)^2−4Px)
(§3) with y represents the fluorescence anisotropy, x the concentration of MyoV-GTD, F0 the initial anisotropy, Fm the maximum anisotropy, and P the peptide concentration. Experiments were repeated twice with two different protein preparations.

[5] = biological target: T2, MyoVa-GTD (Homo sapiens, UniProt Q9Y4I1); assay: as above; assay type: binding; details: 1 µM peptide, MyoVa-GTD 50 nM–5 µM; 100 mM Tris-HCl pH 8.0, 150 mM NaCl, 2 mM MgCl2, 2 mM TCEP, 5% glycerol; 25°C; ± standard error; repeated twice with two protein preparations; read-out: equilibrium dissociation constant (Kd)
T2 construct: aa 1461 - 1853 (BamHI / XhoI); His6 (6xHis) with rTEV site (N, cleaved yes); made in house; host or cells: Escherichia coli BL21(DE3) or BL21-CodonPlus-RILP
Procedure: as §1, §2, §3

[6] = biological target: T3, MyoVc-GTD (Homo sapiens, UniProt Q9NQX4); assay: Microscale thermophoresis, fluorescein-labeled Spir-2 peptide; assay type: binding; details: human Spir-2 aa 401–427
T3 construct: aa 1350 - 1742 (BamHI / XhoI); His6 (6xHis) with rTEV site (N, cleaved yes); made in house; host or cells: Escherichia coli BL21(DE3) or BL21-CodonPlus-RILP
Procedure: MST experiments were performed on a Monolith NT.115 system (NanoTemper Technologies, München, Germany) using 5% LED and 30% IR-laser power at 21.5°C. Laser on and off times were set at 30 s and 5 s, respectively. Fluorescein labeled Spir-2 peptide was synthesized by Genscript, the peptide was dissolved in PBS with 0.005% Tween-20 and diluted to 1 μM concentration. A two-fold dilution series was prepared for the MyoVc-GTD in the interaction buffer (50 mM Tris pH 8.0, 250 mM NaCl, 2 mM MgCl2, 2 mM TCEP, 5% (v/v) glycerol) and each dilution point was transferred to the Fluorescein-Spir-2 solution. The final concentrations of MyoVc-GTD ranged from 97 μM to 2.96 nM, the final concentration of the labeled peptide was 500 nM. Samples were filled into premium capillaries (NanoTemper Technologies) for measurements. The experiments were performed with three independent replicates. The affinity was quantified by analyzing the change in normalized fluorescence as a function of the concentration of the titrated peptide using the NTAnalysis software provided by the manufacturer.

[7] = biological target: T1, MyoVb-GTD; assay: Surface plasmon resonance, Rab11a captured; assay type: binding; details: MyoVb-GTD 10 nM–5 µM over captured Rab11a-Q70L(GTP) or Rab11-wt(GDP); 50 mM Hepes pH 7.5, 100 mM NaCl, 2 mM MgCl2, 1 mM TCEP; 25°C; steady state; mean ± SEM, N = 3; read-out: dissociation equilibrium constant (Kd)
Procedure: (§4) The assays were carried out at 25°C in buffer (50 mM Hepes pH 7.5, 100 mM NaCl, 2 mM MgCl2, 1 mM TCEP). 200–250 resonance units (RU; 1RU ≈ 1 pg × mm^−2) of Rab11a-Q70L(GTP) or Rab11-wt(GDP) were captured through their His6-tag on the surface of a NTA sensorchip using a Biacore 2000 instrument (GE Healthcare Life Sciences). MyoVa-GTD or MyoVb-GTD (10 nM–5 µM) were then injected over the tethered Rabs for one minute at a flow rate of […]. The surface was regenerated with a 2-min 0.3 M EDTA incubation and a 1-min 0.1% SDS wash. The real-time interaction profiles were double referenced using the Scrubber 2.0 software (BioLogic Software, Campbell, Australia), both the signals from a reference surface (with a non-relevant protein captured on NTA) and from blank experiments using buffer instead of MyoV-GTD were subtracted. The MyoV-GTD concentration-dependence of the steady-state SPR signals was then analyzed to determine the dissociation equilibrium constants (Kd) of the different complexes using the numerical integration algorithm software Biaevaluation 4.1. Each experiment (10 point 2-fold dilution concentration series each) was repeated in triplicate, yielding mean Kd values and standard errors (SEM).

[8] = biological target: T2, MyoVa-GTD; assay: Surface plasmon resonance, Rab11a captured; assay type: binding; details: MyoVa-GTD 10 nM–5 µM over captured Rab11a-Q70L(GTP) or Rab11-wt(GDP); 50 mM Hepes pH 7.5, 100 mM NaCl, 2 mM MgCl2, 1 mM TCEP; 25°C; steady state; mean ± SEM, N = 3; read-out: dissociation equilibrium constant (Kd)
Procedure: as §4

T2 sequence (Q9Y4I1 1463-1855): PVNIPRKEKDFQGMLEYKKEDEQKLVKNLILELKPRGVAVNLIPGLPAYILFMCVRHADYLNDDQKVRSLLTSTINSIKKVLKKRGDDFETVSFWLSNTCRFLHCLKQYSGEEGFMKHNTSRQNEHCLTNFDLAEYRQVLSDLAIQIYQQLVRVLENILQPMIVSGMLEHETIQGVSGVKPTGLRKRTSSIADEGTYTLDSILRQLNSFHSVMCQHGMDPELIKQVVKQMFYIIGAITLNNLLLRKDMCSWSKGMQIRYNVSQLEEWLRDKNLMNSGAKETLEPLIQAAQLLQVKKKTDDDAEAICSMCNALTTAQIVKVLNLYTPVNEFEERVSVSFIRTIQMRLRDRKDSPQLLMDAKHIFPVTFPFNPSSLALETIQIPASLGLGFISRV
T3 sequence (Q9NQX4 1350-1742): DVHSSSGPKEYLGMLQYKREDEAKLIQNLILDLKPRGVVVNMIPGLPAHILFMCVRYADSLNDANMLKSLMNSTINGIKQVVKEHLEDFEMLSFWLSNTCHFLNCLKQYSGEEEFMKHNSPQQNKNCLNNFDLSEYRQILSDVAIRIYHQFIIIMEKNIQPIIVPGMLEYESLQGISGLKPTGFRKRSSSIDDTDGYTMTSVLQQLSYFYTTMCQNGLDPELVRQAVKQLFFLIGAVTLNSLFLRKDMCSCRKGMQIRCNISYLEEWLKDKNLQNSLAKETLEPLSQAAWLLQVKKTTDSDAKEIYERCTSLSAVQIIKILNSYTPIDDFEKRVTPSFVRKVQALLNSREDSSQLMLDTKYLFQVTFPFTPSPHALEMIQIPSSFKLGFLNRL

GFP-MyoVa-FL: eGFP-tagged full-length MyoVa
colocalization with Spir-2 in words [1]: perfect colocalization | pulldown by GST-Rab11a-Q70L in words [2]: able to pull GFP-MyoVa-FL from cell lysates | subcellular localization in words [3]: even cytoplasmic distribution

CSCC[C@H](NC(=O)[C@H](CCC(=O)O)NC(=O)[C@H](C)NC(=O)[C@H](CC(C)C)NC(=O)[C@@H](NC(=O)[C@@H]1CCCN1C(=O)[C@H](C)NC(=O)[C@H](CCCCN)NC(=O)[C@H](CC(C)C)NC(=O)[C@H](CC(C)C)NC(=O)[C@@H](NC(=O)[C@H](CCCNC(=N)N)NC(=O)[C@@H]1CCCN1C(=O)[C@H](CCCNC(=N)N)NC(=O)[C@@H]1CCCN1C(=O)[C@H](CCCNC(=N)N)NC(=O)[C@H](CCC(N)=O)NC(=O)CCCCCNC(=O)c1ccc2c(c1)C(=O)OC21c2ccc(O)cc2Oc2cc(O)ccc21)C(C)C)[C@@H](C)O)C(=O)N[C@@H](CCC(=O)O)C(=O)N[C@@H](CCC(=O)O)C(=O)N[C@@H](CCSC)C(=O)N[C@@H](CC(N)=O)C(=O)N[C@H](C(=O)N[C@@H](CO)C(=O)N[C@@H](CCC(=O)O)C(=O)N[C@@H](CCC(=O)O)C(=O)N[C@@H](CCC(=O)O)C(=O)N[C@@H](CCC(=O)O)C(=O)O)[C@@H](C)O [Fluorescein-Spir-2-GTBM] ({5FAM-Ahx}-QRPRPRVLLKAPTLAEMEEMNTSEEEE-OH)
Kd ([4]; 1 µM peptide, MyoVb-GTD 50 nM–5 µM, 100 mM Tris-HCl pH 8.0, 150 mM NaCl, 2 mM MgCl2, 2 mM TCEP, 5% glycerol, 25°C, ± standard error, repeated twice with two protein preparations, read-out: equilibrium dissociation constant (Kd)): 2000 ± 70 nM | Kd [5]: 900 ± 110 nM

QRPRPRVLLKAPTLAEMEEMNTSEEEE [Spir-2-GTBM]
binding affinity in words ([4]; human Spir-2 aa 401–427): low micromolar affinity | binding affinity in words [6]: micromolar range affinity

B1: Rab11GTP: Rab11a-Q70L(GTP) captured through its His6-tag (protein, UniProt P62491 2-213, looked up, variant Q70L)
Ras-related protein Rab-11A: GTRDDEYDYLFKVVLIGDSGVGKSNLLSRFTRNEFNLESKSTIGVEFATRSIQVDGKTIKAQIWDTAGLERYRAITSAYYRGAVGALLVYDIAKHLTYENVERWLKELRDHADSNIVIMLVGNKSDLRHLRAVPTDEARAFAEKNGLSFIETSALDSTNVEAAFQTILTEIYRIVSQKQMSDRRENDMSPSNNVVPIHVPPTTENKPKVQCC
modifications: His6 tag; GTP-bound
Kd [7]: 1370 ± 240 nM | Kd [8]: 203 ± 42 nM
